Results reported in ChEMBL document CHEMBL1127714, “Vasorelaxant activity of 2-fluoromethylbenzopyran K+ channel openers” (Bioorg Med Chem Lett, 1994).

Legend:
Rattus norvegicus [1] = species: Rattus norvegicus; assay: Negative logarithm of the molar concentration required to relax rat aorta precontracted with 30 mM KCL by 50% of intrinsic activity; type: functional
Rattus norvegicus [2] = species: Rattus norvegicus; assay: Intrinsic activity determined in rat aorta; type: functional

| SMILES | EC50 (Rattus norvegicus [1]) [nM] | IA (Rattus norvegicus [2]) [%] |
| --- | --- | --- |
| O=c1ccccn1C1=CC(CF)(CF)Oc2ccc(C(F)(F)C(F)(F)F)cc21 | 2.95 | 69.2 |
| N#Cc1ccc2c(c1)[C@@H](n1ccccc1=O)[C@H](O)C(CF)(CF)O2 | 148 | 78.7 |
| O=C1CCCN1C1=CC(CF)(CF)Oc2ccc([N+](=O)[O-])cc21 | 7.76 | 74.3 |
| N#Cc1ccc2c(c1)C(n1ccccc1=O)=CC(CF)(CF)O2 | 24.5 | 75.7 |
| O=c1ccccn1C1=CC(CF)(CF)Oc2ccc([N+](=O)[O-])cc21 | 2.45 | 64.9 |
| O=C1CCCCN1C1=CC(CF)(CF)Oc2ccc(C(F)(F)C(F)(F)F)cc21 | 5.62 | 72 |
| O=C1CCCN1C1=CC(CF)(CF)Oc2ccc(C(F)(F)C(F)(F)F)cc21 | 1.51 | 68.6 |
| N#Cc1ccc2c(c1)[C@@H](N1CCCC1=O)[C@H](O)C(CF)(CF)O2 | 85.1 | 78 |
| O=C1CCCCN1C1=CC(CF)(CF)Oc2ccc([N+](=O)[O-])cc21 | 17.4 | 69.7 |
| N#Cc1ccc2c(c1)[C@@H](N1CCCCC1=O)[C@H](O)C(CF)(CF)O2 | 8.91 | 74.9 |
| O=c1ccccn1[C@@H]1c2cc(C(F)(F)C(F)(F)F)ccc2OC(CF)(CF)[C@H]1O | 12 | 82.8 |
| O=C1CCCN1[C@@H]1c2cc(C(F)(F)C(F)(F)F)ccc2OC(CF)(CF)[C@H]1O | 6.31 | 77.6 |
| N#Cc1ccc2c(c1)C(N1CCCCC1=O)=CC(CF)(CF)O2 | 162 | 68.7 |
| [O-][n+]1ccccc1C1=CC(CF)(CF)Oc2ccc(C(F)(F)C(F)(F)F)cc21 | 1.7 | 68.2 |
| N#Cc1ccc2c(c1)C(N1CCCC1=O)=CC(CF)(CF)O2 | 102 | 74.4 |
| O=C1CCCCN1[C@@H]1c2cc([N+](=O)[O-])ccc2OC(CF)(CF)[C@H]1O | 2.75 | 63.3 |
| O=C1CCCN1[C@@H]1c2cc([N+](=O)[O-])ccc2OC(CF)(CF)[C@H]1O | 24 | 72.7 |
| O=c1ccccn1[C@@H]1c2cc([N+](=O)[O-])ccc2OC(CF)(CF)[C@H]1O | 28.8 | 74.5 |
| O=C1CCCCN1[C@@H]1c2cc(C(F)(F)C(F)(F)F)ccc2OC(CF)(CF)[C@H]1O | 3.89 | 65.6 |
| CC1(C)C=C(n2ccccc2=O)c2cc(C#N)ccc2O1 [BIMAKALIM] | 30.2 | 70.2 |
| CC1(C)Oc2ccc(C#N)cc2[C@@H](N2CCCC2=O)[C@@H]1O [CROMAKALIM] |  | 74.7 |
| CC(N/C(=N\C#N)Nc1ccncc1)C(C)(C)C (configuration not stated) [PINACIDIL ANHYDROUS] |  | 91.9 |
